# Laboratory results reported in publication PMC5218480 (PLoS ONE, 2017).
# Tested on: MV-4-11 cells
# Experiment: Gene expression microarray analysis (Affymetrix PrimeView) and GSEA
# Format: cell-based, human
# Design: RFU PODN (11730768_x_at) / Fold change /veh PODN (11730768_x_at) / RFU LINC00158 (11744669_a_at) / Fold change /veh LINC00158 (11744669_a_at) / RFU DUSP10 (11751237_a_at) / Fold change /veh DUSP10 (11751237_a_at) / RFU ID3 (11757404_x_at) / Fold change /veh ID3 (11757404_x_at) / RFU PLEKHG5 (11737974_s_at) / Fold change /veh PLEKHG5 (11737974_s_at) / RFU LRRC4B (11730491_at) / Fold change /veh LRRC4B (11730491_at) / RFU GIMAP4 (11747438_a_at) / Fold change /veh GIMAP4 (11747438_a_at) / RFU KRT8 (11758183_x_at) / Fold change /veh KRT8 (11758183_x_at) / RFU CNN1 (11734310_a_at) / Fold change /veh CNN1 (11734310_a_at) / RFU VPS37D (11726825_at) / Fold change /veh VPS37D (11726825_at) / RFU C10orf10 (11716522_x_at) / Fold change /veh C10orf10 (11716522_x_at) / RFU KIR2DL2 /// KIR2DL4 /// KIR2DL5A /// KIR2DL5B /// KIR2DS1 /// KIR2DS2 /// KIR2DS3 /// KIR2DS4 /// KIR3DL3 /// KIR3DL3 /// KIR3DS1 (11738374_at) / Fold change /veh KIR2DL2 /// KIR2DL4 /// KIR2DL5A /// KIR2DL5B /// KIR2DS1 /// KIR2DS2 /// KIR2DS3 /// KIR2DS4 /// KIR3DL3 /// KIR3DL3 /// KIR3DS1 (11738374_at) / RFU C1QL1 (11718748_at) / Fold change /veh C1QL1 (11718748_at) / RFU TMPRSS4 (11747572_a_at) / Fold change /veh TMPRSS4 (11747572_a_at) / RFU HAMP (11756126_x_at) / Fold change /veh HAMP (11756126_x_at) / RFU RNFT2 (11725882_a_at) / Fold change /veh RNFT2 (11725882_a_at) / RFU NR4A2 (11747474_a_at) / Fold change /veh NR4A2 (11747474_a_at) / RFU ABCC12 (11746883_a_at) / Fold change /veh ABCC12 (11746883_a_at) / RFU TMEM136 (11760407_x_at) / Fold change /veh TMEM136 (11760407_x_at) / RFU CLDN22 /// WWC2 (11732394_at) / Fold change /veh CLDN22 /// WWC2 (11732394_at) / RFU HLA-DPB1 (11760878_x_at) / Fold change /veh HLA-DPB1 (11760878_x_at) / RFU SPINT1 (11716480_a_at) / Fold change /veh SPINT1 (11716480_a_at) / RFU GAP43 (11754022_s_at) / Fold change /veh GAP43 (11754022_s_at) / RFU A4GNT (11735810_at) / Fold change /veh A4GNT (11735810_at) / RFU PRB3 (11715151_x_at) / Fold change /veh PRB3 (11715151_x_at) / RFU TUBB4B (11761932_at) / Fold change /veh TUBB4B (11761932_at) / RFU CAPN14 (11732068_a_at) / Fold change /veh CAPN14 (11732068_a_at) / RFU TMCC2 (11721928_a_at) / Fold change /veh TMCC2 (11721928_a_at) / RFU IRGQ (11745062_a_at) / Fold change /veh IRGQ (11745062_a_at) / RFU FAM174B (11720279_a_at) / Fold change /veh FAM174B (11720279_a_at) / RFU TMPRSS4 (11748680_a_at) / Fold change /veh TMPRSS4 (11748680_a_at) / RFU FAM212B (11763350_a_at) / Fold change /veh FAM212B (11763350_a_at) / RFU PLEKHG5 (11743358_a_at) / Fold change /veh PLEKHG5 (11743358_a_at) / RFU ZSCAN30 (11745921_a_at) / Fold change /veh ZSCAN30 (11745921_a_at) / RFU CMKLR1 (11741424_a_at) / Fold change /veh CMKLR1 (11741424_a_at) / RFU LOC101060620 /// MAPK8IP1 (11723275_at) / Fold change /veh LOC101060620 /// MAPK8IP1 (11723275_at) / RFU SPTSSB (11747773_x_at) / Fold change /veh SPTSSB (11747773_x_at) / RFU PRSS12 (11739890_at) / Fold change /veh PRSS12 (11739890_at) / RFU BIN1 (11741810_x_at) / Fold change /veh BIN1 (11741810_x_at) / RFU WNT11 (11732464_a_at) / Fold change /veh WNT11 (11732464_a_at) / RFU C10orf10 (11716521_a_at) / Fold change /veh C10orf10 (11716521_a_at) / RFU C5orf56 (11738089_at) / Fold change /veh C5orf56 (11738089_at) / RFU CYB561 (11721691_x_at) / Fold change /veh CYB561 (11721691_x_at) / RFU ANKRD19P (11752326_a_at) / Fold change /veh ANKRD19P (11752326_a_at) / RFU OR2T12 /// OR2T33 /// OR2T8 (11738714_s_at) / Fold change /veh OR2T12 /// OR2T33 /// OR2T8 (11738714_s_at) / RFU VCAN (11748164_a_at) / Fold change /veh VCAN (11748164_a_at) / RFU JSRP1 (11732532_at) / Fold change /veh JSRP1 (11732532_at) / RFU KRTAP10-11 (11738290_x_at) / Fold change /veh KRTAP10-11 (11738290_x_at) / RFU MYO3A (11730013_a_at) / Fold change /veh MYO3A (11730013_a_at) / RFU EBF3 (11725865_a_at) / Fold change /veh EBF3 (11725865_a_at) / RFU CAMK2N1 (11719241_x_at) / Fold change /veh CAMK2N1 (11719241_x_at) / RFU C5orf56 (11738088_a_at) / Fold change /veh C5orf56 (11738088_a_at) / RFU OLFML3 (11715873_a_at) / Fold change /veh OLFML3 (11715873_a_at) / RFU LOC100653217 /// NTM (11731650_a_at) / Fold change /veh LOC100653217 /// NTM (11731650_a_at) / RFU MAPK11 (11762145_a_at) / Fold change /veh MAPK11 (11762145_a_at) / RFU FIZ1 (11724087_x_at) / Fold change /veh FIZ1 (11724087_x_at) / RFU OASL (11726364_x_at) / Fold change /veh OASL (11726364_x_at) / RFU SOX15 (11748057_x_at) / Fold change /veh SOX15 (11748057_x_at) / RFU CD79A (11719716_a_at) / Fold change /veh CD79A (11719716_a_at) / RFU HIST1H1D (11736915_at) / Fold change /veh HIST1H1D (11736915_at) / RFU CASKIN2 (11723855_a_at) / Fold change /veh CASKIN2 (11723855_a_at) / RFU LOC730098 (11760151_x_at) / Fold change /veh LOC730098 (11760151_x_at) / RFU OR4N2 (11742367_at) / Fold change /veh OR4N2 (11742367_at) / RFU PRRT2 (11749266_a_at) / Fold change /veh PRRT2 (11749266_a_at) / RFU SNX32 (11753110_a_at) / Fold change /veh SNX32 (11753110_a_at) / RFU CDHR5 (11726645_a_at) / Fold change /veh CDHR5 (11726645_a_at) / RFU RCAN1 (11760418_a_at) / Fold change /veh RCAN1 (11760418_a_at) / RFU FAM167A (11723789_a_at) / Fold change /veh FAM167A (11723789_a_at) / RFU FAM26E (11764081_at) / Fold change /veh FAM26E (11764081_at) / RFU ISYNA1 (11749810_s_at) / Fold change /veh ISYNA1 (11749810_s_at) / RFU ACY1 (11761880_at) / Fold change /veh ACY1 (11761880_at) / RFU 11764098_at / Fold change /veh 11764098_at / RFU SAMD14 (11745864_x_at) / Fold change /veh SAMD14 (11745864_x_at) / RFU NPB (11741838_a_at) / Fold change /veh NPB (11741838_a_at) / RFU TMPRSS6 (11731388_a_at) / Fold change /veh TMPRSS6 (11731388_a_at) / RFU KRTAP10-2 (11738614_at) / Fold change /veh KRTAP10-2 (11738614_at) / RFU ARHGAP8 /// PRR5-ARHGAP8 (11727945_x_at) / Fold change /veh ARHGAP8 /// PRR5-ARHGAP8 (11727945_x_at) / RFU KRTAP5-7 /// NADSYN1 (11734609_at) / Fold change /veh KRTAP5-7 /// NADSYN1 (11734609_at) / RFU RASL12 (11751679_a_at) / Fold change /veh RASL12 (11751679_a_at) / RFU CDKN2B (11736163_a_at) / Fold change /veh CDKN2B (11736163_a_at) / RFU PRF1 (11729649_at) / Fold change /veh PRF1 (11729649_at) / RFU, ZNF638 /// ZNF638-IT1 / Fold change vs veh, ZNF638 /// ZNF638-IT1 / RFU, PANK3 / Fold change vs veh, PANK3 / RFU, SH3YL1 / Fold change vs veh, SH3YL1 / RFU, ZEB2 / Fold change vs veh, ZEB2 / RFU, NRIP1 / Fold change vs veh, NRIP1 / RFU, PTTG1IP / Fold change vs veh, PTTG1IP / RFU, CAPN2 / Fold change vs veh, CAPN2 / RFU, MED14 / Fold change vs veh, MED14 / RFU, SNORA58 / Fold change vs veh, SNORA58 / RFU, C1orf63 / Fold change vs veh, C1orf63 / RFU, LRRFIP1 / Fold change vs veh, LRRFIP1 / RFU, NDUFAF7 / Fold change vs veh, NDUFAF7 / RFU, SLC12A2 / Fold change vs veh, SLC12A2 / RFU, IBTK / Fold change vs veh, IBTK / RFU, ESF1 / Fold change vs veh, ESF1 / Fold change vs veh, TMEM50B / RFU, TAOK1 / Fold change vs veh, TAOK1 / RFU, ACBD3 / Fold change vs veh, ACBD3 / RFU, TMA16 / Fold change vs veh, TMA16 / RFU, RWDD3 / Fold change vs veh, RWDD3 / RFU, BCAT1 / Fold change vs veh, BCAT1 / RFU, EDEM3 / Fold change vs veh, EDEM3 / RFU, TMEM33 / Fold change vs veh, TMEM33 / RFU, WDR75 / Fold change vs veh, WDR75 / RFU, AHCTF1 / Fold change vs veh, AHCTF1 / RFU, TFRC / Fold change vs veh, TFRC / RFU, ZDHHC17 / Fold change vs veh, ZDHHC17 / RFU, NOM1 / Fold change vs veh, NOM1 / RFU, ARL8B / Fold change vs veh, ARL8B / RFU, ZBTB11 / Fold change vs veh, ZBTB11 / RFU, TAMM41 / Fold change vs veh, TAMM41 / RFU, KIAA1704 /// LOC100996395 / Fold change vs veh, KIAA1704 /// LOC100996395 / RFU, ING1 / Fold change vs veh, ING1 / RFU, TRMT61B / Fold change vs veh, TRMT61B / RFU, FUBP3 / Fold change vs veh, FUBP3 / RFU, TP53 / Fold change vs veh, TP53 / RFU, TNKS2 / Fold change vs veh, TNKS2 / RFU, ZFP14 / Fold change vs veh, ZFP14 / RFU, ACTR2 / Fold change vs veh, ACTR2 / RFU, PPP3R1 / Fold change vs veh, PPP3R1 / RFU, PIK3R1 / Fold change vs veh, PIK3R1 / RFU, HNRNPA1 / Fold change vs veh, HNRNPA1 / RFU, RNF170 / Fold change vs veh, RNF170 / RFU, ZNF28 / Fold change vs veh, ZNF28 / RFU, RNGTT / Fold change vs veh, RNGTT / RFU, OGT / Fold change vs veh, OGT / RFU, BRD1 / Fold change vs veh, BRD1 / RFU, MARS / Fold change vs veh, MARS / RFU, ZNF655 / Fold change vs veh, ZNF655 / RFU, FAHD1 / Fold change vs veh, FAHD1 / RFU, BDP1 / Fold change vs veh, BDP1 / RFU, LRRCC1 / Fold change vs veh, LRRCC1 / RFU, ARID1A / Fold change vs veh, ARID1A / RFU, ZNF146 / Fold change vs veh, ZNF146 / RFU, ZNF330 / Fold change vs veh, ZNF330 / RFU, GPN3 / Fold change vs veh, GPN3 / RFU, C9orf123 / Fold change vs veh, C9orf123 / RFU, N4BP2L2 / Fold change vs veh, N4BP2L2 / RFU, ARFIP1 / Fold change vs veh, ARFIP1 / RFU, FAM179B / Fold change vs veh, FAM179B / RFU, BCL10 / Fold change vs veh, BCL10 / RFU, UHRF1BP1L / Fold change vs veh, UHRF1BP1L / RFU, BET1 / Fold change vs veh, BET1 / RFU, CNOT2 / Fold change vs veh, CNOT2 / RFU, ZNF268 / Fold change vs veh, ZNF268 / Fold change vs veh, ZNF507 / RFU, DGCR2 / Fold change vs veh, DGCR2 / RFU, WDSUB1 / Fold change vs veh, WDSUB1 / Fold change vs veh, HSP90B1 /// MIR3652 / RFU, ADSS / Fold change vs veh, ADSS / RFU, GK / Fold change vs veh, GK / RFU, ZNF148 / Fold change vs veh, ZNF148 / RFU, TAF9 / Fold change vs veh, TAF9 / RFU, SLC1A5 / Fold change vs veh, SLC1A5 / RFU, SLMO2 / Fold change vs veh, SLMO2 / RFU, ABCC4 / Fold change vs veh, ABCC4 / RFU, LOC101060439 /// RAP1B / Fold change vs veh, LOC101060439 /// RAP1B / RFU, RFX7 / Fold change vs veh, RFX7 / RFU, GTPBP10 / Fold change vs veh, GTPBP10 / RFU, CNEP1R1 / Fold change vs veh, CNEP1R1 / RFU, BIVM-ERCC5 /// ERCC5 / Fold change vs veh, BIVM-ERCC5 /// ERCC5 / RFU, ILF3 / Fold change vs veh, ILF3 / RFU 11762660_at / Fold change /veh 11762660_at / RFU VCAN (11757783_s_at) / Fold change /veh VCAN (11757783_s_at) / RFU DDX43 (11728927_at) / Fold change /veh DDX43 (11728927_at) / RFU KRT8 (11758188_x_at) / Fold change /veh KRT8 (11758188_x_at) / RFU NKD1 (11759106_at) / Fold change /veh NKD1 (11759106_at) / RFU SRD5A1 (11742802_a_at) / Fold change /veh SRD5A1 (11742802_a_at) / RFU TPSAB1 /// TPSB2 (11721975_s_at) / Fold change /veh TPSAB1 /// TPSB2 (11721975_s_at) / RFU GSTM3 (11746129_a_at) / Fold change /veh GSTM3 (11746129_a_at) / RFU IL23R (11737362_x_at) / Fold change /veh IL23R (11737362_x_at) / RFU TMEM51 (11727254_a_at) / Fold change /veh TMEM51 (11727254_a_at) / RFU PIWIL2 (11732686_x_at) / Fold change /veh PIWIL2 (11732686_x_at) / RFU ORM1 (11744905_x_at) / Fold change /veh ORM1 (11744905_x_at) / RFU CCDC152 (11743942_at) / Fold change /veh CCDC152 (11743942_at) / RFU ECM1 (11717891_a_at) / Fold change /veh ECM1 (11717891_a_at) / RFU IL23R (11748794_a_at) / Fold change /veh IL23R (11748794_a_at) / RFU TNFAIP8L3 (11732012_x_at) / Fold change /veh TNFAIP8L3 (11732012_x_at) / RFU MBOAT4 (11741988_at) / Fold change /veh MBOAT4 (11741988_at) / RFU 11764193_at / Fold change /veh 11764193_at / RFU TMEM53 (11763286_at) / Fold change /veh TMEM53 (11763286_at) / RFU MAGEB2 (11727129_at) / Fold change /veh MAGEB2 (11727129_at) / RFU TMEM200A (11744735_a_at) / Fold change /veh TMEM200A (11744735_a_at) / RFU CCDC152 (11751479_a_at) / Fold change /veh CCDC152 (11751479_a_at) / RFU FAM211A (11726209_a_at) / Fold change /veh FAM211A (11726209_a_at) / RFU RGS16 (11746705_a_at) / Fold change /veh RGS16 (11746705_a_at) / RFU VCAN (11755009_s_at) / Fold change /veh VCAN (11755009_s_at) / RFU RHOB (11743442_s_at) / Fold change /veh RHOB (11743442_s_at) / RFU RGS16 (11720943_a_at) / Fold change /veh RGS16 (11720943_a_at) / RFU RGS16 (11720944_at) / Fold change /veh RGS16 (11720944_at) / RFU, VPS4B / Fold change vs veh, VPS4B / RFU, CREB1 / Fold change vs veh, CREB1 / RFU, DNAJC13 / Fold change vs veh, DNAJC13 / RFU, GNAQ / Fold change vs veh, GNAQ / RFU, CDK5R1 / Fold change vs veh, CDK5R1 / RFU, ZRANB3 / Fold change vs veh, ZRANB3 / RFU, CUL4A / Fold change vs veh, CUL4A / RFU, CCNY / Fold change vs veh, CCNY / RFU, UFL1 / Fold change vs veh, UFL1 / RFU, COG3 / Fold change vs veh, COG3 / RFU, DIAPH2 / Fold change vs veh, DIAPH2 / RFU, SKA2 / Fold change vs veh, SKA2 / RFU, AFF3 / Fold change vs veh, AFF3 / RFU, LMF1 / Fold change vs veh, LMF1 / RFU, IPO11 / Fold change vs veh, IPO11 / RFU, DFFB / Fold change vs veh, DFFB / RFU, FOXP1 / Fold change vs veh, FOXP1 / RFU, CARD8 / Fold change vs veh, CARD8 / RFU, STRN3 / Fold change vs veh, STRN3 / RFU, ADK / Fold change vs veh, ADK / RFU, RASSF2 / Fold change vs veh, RASSF2 / RFU, WIPF1 / Fold change vs veh, WIPF1 / RFU, LARP1B / Fold change vs veh, LARP1B / RFU, RASA1 / Fold change vs veh, RASA1 / RFU, RB1 / Fold change vs veh, RB1 / RFU, PPFIA1 / Fold change vs veh, PPFIA1 / RFU, MAT2A / Fold change vs veh, MAT2A / RFU, CCT5 / Fold change vs veh, CCT5 / RFU, WDR92 / Fold change vs veh, WDR92 / RFU, CUX1 / Fold change vs veh, CUX1 / RFU, TTC7A / Fold change vs veh, TTC7A / RFU, TMEM135 / Fold change vs veh, TMEM135 / RFU, DEPTOR / Fold change vs veh, DEPTOR / RFU, CPM / Fold change vs veh, CPM / RFU, DNAJB6 / Fold change vs veh, DNAJB6 / RFU, CACNA2D3 / Fold change vs veh, CACNA2D3 / RFU, DTX4 / Fold change vs veh, DTX4 / RFU, TFCP2 / Fold change vs veh, TFCP2 / RFU, GMCL1 /// GMCL1P1 / Fold change vs veh, GMCL1 /// GMCL1P1 / RFU, AEBP2 / Fold change vs veh, AEBP2 / RFU, SNHG1 /// SNORD22 /// SNORD25 /// SNORD26 /// SNORD27 /// SNORD28 /// SNORD29 /// SNORD31 / Fold change vs veh, SNHG1 /// SNORD22 /// SNORD25 /// SNORD26 /// SNORD27 /// SNORD28 /// SNORD29 /// SNORD31 / Fold change (Aza/veh), C12orf56 (ProbeSet 11735607_a_at) / Fold change (ACY-1035/veh), C12orf56 (ProbeSet 11735607_a_at) / Fold change (Aza/veh), FGFR1OP (ProbeSet 11751329_s_at) / Fold change (ACY-1035/veh), FGFR1OP (ProbeSet 11751329_s_at) / Fold change (Aza/veh), VPS36 (ProbeSet 11739960_a_at) / Fold change (ACY-1035/veh), VPS36 (ProbeSet 11739960_a_at) / RFU SYPL1 (11715823_x_at) / Fold change /veh SYPL1 (11715823_x_at) / RFU IGFBP7 (11715501_s_at) / Fold change /veh IGFBP7 (11715501_s_at) / RFU REEP3 (11722064_at) / Fold change /veh REEP3 (11722064_at) / RFU IGLL1 (11728026_x_at) / Fold change /veh IGLL1 (11728026_x_at): dose or concentration left out as unconfirmed
# Conditions: ProbeSet 11743286_at; LIST D
structure (smiles),measurement,value
Nc1ccc(-c2cccs2)cc1NC(=O)c1ccc2c(c1)cc(C1CC1)n2CCN1CCOCC1 [ACY-1035],"Fold change vs veh, DTX4",0.97
